Patent US12617773B2, “Azetidin-3-ylmethanol derivatives as CCR6 receptor modulators” (Idorsia Pharmaceuticals Ltd, priority 2020, dated 2026)

Molecular target: T1, human CCR6 (Homo sapiens, UniProt P51684)
T1 construct: expressed in transfected cells; host or cells: HEK-293
T1 sequence (P51684 1-374): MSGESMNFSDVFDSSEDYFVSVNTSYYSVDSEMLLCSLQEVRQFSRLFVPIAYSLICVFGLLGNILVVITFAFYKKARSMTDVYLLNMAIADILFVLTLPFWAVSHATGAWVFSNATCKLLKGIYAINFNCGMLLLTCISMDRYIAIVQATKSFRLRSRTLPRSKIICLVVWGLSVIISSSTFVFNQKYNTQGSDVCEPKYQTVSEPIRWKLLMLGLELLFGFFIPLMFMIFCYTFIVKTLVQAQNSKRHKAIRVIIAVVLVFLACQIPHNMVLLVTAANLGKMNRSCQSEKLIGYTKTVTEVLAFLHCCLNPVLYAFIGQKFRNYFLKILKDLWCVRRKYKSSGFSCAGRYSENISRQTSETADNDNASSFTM
Assay: FLIPR assay (inhibition of CCL20-induced calcium signal)
Assay type: cell-based
Conditions: HEK-293 cells expressing human CCR6; mean values where determined several times; read-out: FLIPR IC50
Summary of the method: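 Dye-loaded HEK-293 cells expressing human CCR6 were preincubated with compound for 30 min at room temperature in the dark, then challenged with 10 nM CCL20 (final). Fluorescence was tracked on FLIPR, and baseline-subtracted peak emission over base after agonist addition gave inhibition dose-response curves for IC50.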

| IC50 | SMILES |
| --- | --- |
| 718 nM | CN1CC(C)([C@](O)(c2ccc(Br)cc2)c2cncc(-c3noc(C(C)(C)O)n3)c2)C1 [Example 532] |
| 331 nM | CN1CC(C)([C@](O)(c2ccc(C(C)(C)C(F)(F)F)cc2)c2cncc(-c3noc(C(C)(C)O)n3)c2)C1 [Example 535] |
| 2450 nM | CC(C)Oc1ccc([C@](O)(c2cncc(-c3noc(C(C)(C)O)n3)c2)C2(C)CN(C)C2)cc1 [Example 536] |
| 122 nM | CN1CC(C)([C@](O)(c2ccc(C(C)(C)C)cc2)c2cncc(-c3noc(C(C)(C)O)n3)c2)C1 [Example 540] |
| 34.8 nM | CN1CC(C)([C@](O)(c2ccc(C(F)(F)C(F)(F)F)cc2)c2cncc(-c3noc(C(C)(C)O)n3)c2)C1 [Example 542] |
| 22.8 nM | CN1CC(C)([C@](O)(c2ccc(C3(C)CC3)cc2)c2cncc(-c3noc(C(C)(C)O)n3)c2)C1 [Example 543] |
| 61 nM | CN1CC(C)([C@](O)(c2ccc(OC(F)(F)F)cc2)c2cncc(-c3noc(C(C)(C)O)n3)c2)C1 [Example 545] |
| 797 nM | CN1CC(C)([C@](O)(c2ccc(C(C)(C)F)cc2)c2cncc(-c3noc(C(C)(C)O)n3)c2)C1 [Example 547] |
| 742 nM | CN1CC(C)([C@](O)(c2ccc(C(C)(F)F)cc2)c2cncc(-c3noc(C(C)(C)O)n3)c2)C1 [Example 548] |

Second part, the molecule before the results:

| SMILES | IC50 |
| --- | --- |
| COCCS(=O)(=O)N1CCC(c2noc(-c3cncc([C@@](O)(c4ccc(C(C)C)cc4)C4(C)CN(C)C4)c3)n2)CC1 [Example 528, (R)-(1,3-Dimethyl-azetidin-3-yl)-(4-isopropyl-phenyl)-(5-{3-[1-(2-methoxy-ethanesulfonyl)-piperidin-4-yl]-[1,2,4]oxadiazol-5-yl}-pyridin-3-yl)-methanol] | 66.9 nM |
| CC(C)c1ccc([C@](O)(c2cncc(-c3nc(C4CCN(C(=O)CO)CC4)no3)c2)C2(C)CN(C)C2)cc1 [Example 529, 1-[4-(5-{5-[(R)-(1,3-Dimethyl-azetidin-3-yl)-hydroxy-(4-isopropyl-phenyl)-methyl]-pyridin-3-yl}-[1,2,4]oxadiazol-3-yl)-piperidin-1-yl]-2-hydroxy-ethanone] | 134 nM |
| CC(C)c1ccc([C@](O)(c2cncc(-c3ncon3)c2)C2(C)CN(C)C2)cc1 [Example 530, (R)-(1,3-Dimethyl-azetidin-3-yl)-(4-isopropyl-phenyl)-(5-[1,2,4]oxadiazol-3-yl-pyridin-3-yl)-methanol] | 58.7 nM |
| CC(=O)N1CCC(c2nc(-c3cncc([C@@](O)(c4ccc(C(C)C)cc4)C4(C)CN(C)C4)c3)no2)CC1 [Example 531, 1-[4-(3-{5-[(R)-(1,3-Dimethyl-azetidin-3-yl)-hydroxy-(4-isopropyl-phenyl)-methyl]-pyridin-3-yl}-[1,2,4]oxadiazol-5-yl)-piperidin-1-yl]-ethanone] | 90 nM |
| CN1CC(C)([C@@](O)(c2cncc(-c3noc(C(C)(C)O)n3)c2)c2ccc3ccccc3c2)C1 [Example 533] | 1020 nM |
| CN1CC(C)([C@](O)(c2ccc(C3(C(F)(F)F)CC3)cc2)c2cncc(-c3noc(C(C)(C)O)n3)c2)C1 [Example 534] | 47 nM |
| CN1CC(C)([C@](O)(c2ccc(C(F)(C(F)(F)F)C(F)(F)F)cc2)c2cncc(-c3noc(C(C)(C)O)n3)c2)C1 [Example 537] | 152 nM |
| CN1CC(C)([C@](O)(c2ccc(S(F)(F)(F)(F)F)cc2)c2cncc(-c3noc(C(C)(C)O)n3)c2)C1 [Example 538] | 145 nM |
| CC(C)c1ccc([C@](O)(c2cncc(-c3noc(C(C)(C)O)n3)c2)C2(C)CN(C)C2)cc1F [Example 539] | 56 nM |
| CN1CC(C)([C@@](O)(c2cncc(-c3noc(C(C)(C)O)n3)c2)c2ccc3sccc3c2)C1 [Example 541] | 452 nM |
| Cc1cc([C@](O)(c2cncc(-c3noc(C(C)(C)O)n3)c2)C2(C)CN(C)C2)ccc1C(C)C [Example 544] | 257 nM |
| CC(=O)N1CCC(c2nc(-c3cncc([C@@](O)(c4ccc(Br)cc4)C4(C)CN(C)C4)c3)no2)CC1 [Example 546] | 776 nM |
| CN1CC(C)([C@](O)(c2ccc(C34CC(C3)C4)cc2)c2cncc(-c3noc(C(C)(C)O)n3)c2)C1 [Example 549] | 58.2 nM |
